{"source": "patent US20250161241A1", "about": "“CYSTEAMIDES, THERAPEUTIC COMPOSITIONS THEREOF, AND RELATED METHODS” (Boyce Thompson Institute for Plant Research, Inc., priority 2022, published 2025)", "key": {"[1]": {"tested_on": "gut Tregs (colon tissue)", "experiment": "colon (gut) Treg levels in mice after oral gavage (flow cytometry)", "format": "in vivo, mouse", "conditions": "SPF mice, oral gavage 50 mg/kg/day, 14 days, vs vehicle, FIG. 66 bottom row", "protocol": "(§1) Butyrate-MCY (dissolved in water) was delivered by oral gavage at a rate of 50 mg/kg body weight per day in a volume of 100 μL for two weeks.\nMouse colons were removed, cleaned of attached fat tissues, and washed in ice-cold PBS (Sigma-Aldrich). They were then opened longitudinally and washed again in ice-cold PBS. Dissociation of epithelial cells was performed by shaking at 37° C. in HBSS (Sigma-Aldrich) containing 10 mM HEPES, 10 mM EDTA (Thermo Fisher Scientific) and 2 mM dithiothreitol (DTT) two times for 15 min each. After each step, samples were vortexed, and the supernatant containing the epithelial fraction was removed. […]\n(§2) All antibodies above were used at 1:200 dilutions, except FoxP3 were used at 1:100 dilutions. Stained cells were analyzed on a 5 laser, 18 color custom-configuration BD LSRFortessa (BD). Data were collected using BD FACSDiva version 9.0 and analyzed using FlowJo (version 10.7.1, Tree Star).\nFor functional evaluation, the previously unreported MCY conjugates of butyrate were prioritized, given that their microbiota-dependent production is conserved in humans and considering that the corresponding parent metabolite, butyrate, serves important roles in immune homeostasis. […] FIG. 66 (top row) provides representative flow cytometry plots of Tregs and quantification of Tregs as percentage of all CD4+ T cells in brain tissue from vehicle or butyrate-MCY treated mice. […]"}, "[2]": {"tested_on": "brain-resident Tregs", "experiment": "brain-resident Treg levels in mice after oral gavage (flow cytometry, i.v. CD45 labeling)", "format": "in vivo, mouse", "conditions": "SPF mice, oral gavage 50 mg/kg/day, 14 days, vs vehicle; brain tissue; FIG. 66 top row", "protocol": "as §1\nFor isolation of brain leukocyte populations, mice were euthanized with CO2 and perfused through the left ventricle with 20 mL PBS. The whole brain was removed and placed in 2.5 mL digestion buffer (PBS, 5% FCS, 1 mM HEPES) before being finely chopped. Collagenase D (Roche, 400 U) was added to the mixture, which was then incubated at 37° C. for 30 min before adding 50 μL 0.5 M EDTA, followed by a 5-min incubation. […]\nas §2\nFor functional evaluation, the previously unreported MCY conjugates of butyrate were prioritized, given that their microbiota-dependent production is conserved in humans and considering that the corresponding parent metabolite, butyrate, serves important roles in immune homeostasis. […] SPF mice were supplemented via oral gavage with butyrate-MCY (50 mg/kg/day, 100 μL/day, 14 days), which was identified in the brain and serum metabolomes and the levels of brain-resident Tregs was measured. […]"}}}
{"smiles": "CCCC(=O)NCCSC", "note": "[butyrate-MCY]", "values": [{"measurement": "percentage of gut Tregs amongst CD4+ T cells", "setting": "[1]", "result": "significantly decreased"}, {"measurement": "percentage of brain-resident Tregs amongst CD4+ T cells", "setting": "[2]", "result": "significantly decreased"}]}
